Experimental data taken from the NIST ThermoML archive (doi:10.1021/je100945u).
± gives the expanded uncertainty stated by the source.

Conditions: Liquid, Vibrating tube method

CCn1cc[n+](C)c1.O=S(=O)([N-]S(=O)(=O)C(F)(F)F)C(F)(F)F
Conditions	mass density [kg/m3]
283.15 K, 101.33 kPa	1533.48 ± 0.71
283.19 K, 1750 kPa	1533.9 ± 2.5
283.19 K, 5136 kPa	1536.34 ± 2.6
283.19 K, 49993 kPa	1565.54 ± 3
283.19 K, 60272 kPa	1571.51 ± 3.1
283.19 K, 69996 kPa	1577 ± 3.3
283.19 K, 80287 kPa	1582.65 ± 3.5
283.19 K, 89994 kPa	1587.84 ± 3.6
283.2 K, 10046 kPa	1539.78 ± 2.6
283.2 K, 29957 kPa	1553.14 ± 2.8
283.2 K, 40033 kPa	1559.47 ± 2.9
283.21 K, 20030 kPa	1546.57 ± 2.7
283.21 K, 100034 kPa	1593.02 ± 3.8
293.14 K, 99755 kPa	1584.89 ± 3.7
293.15 K, 101.33 kPa	1523.37 ± 0.7
293.15 K, 10202 kPa	1530.8 ± 2.6
293.15 K, 89934 kPa	1579.84 ± 3.6
293.16 K, 20787 kPa	1538.14 ± 2.7
293.16 K, 59685 kPa	1562.92 ± 3.1
293.16 K, 69993 kPa	1568.91 ± 3.3
293.17 K, 1027 kPa	1524.24 ± 2.5
293.17 K, 4981 kPa	1527.1 ± 2.5
293.17 K, 29994 kPa	1544.31 ± 2.8
293.17 K, 49993 kPa	1557.07 ± 3
293.17 K, 79912 kPa	1574.47 ± 3.4
293.19 K, 39872 kPa	1550.73 ± 2.9
298.12 K, 19701 kPa	1532.45 ± 2.6
298.12 K, 29779 kPa	1539.35 ± 2.8
298.13 K, 39926 kPa	1546.05 ± 2.9
298.14 K, 1156 kPa	1519.1 ± 2.5
298.15 K, 101.33 kPa	1518.34 ± 0.69
298.15 K, 49997 kPa	1552.45 ± 3
298.17 K, 5194 kPa	1522.08 ± 2.5
298.18 K, 90001 kPa	1575.41 ± 3.6
298.18 K, 99950 kPa	1580.52 ± 3.7
298.19 K, 10066 kPa	1525.62 ± 2.6
298.19 K, 69997 kPa	1564.42 ± 3.2
298.19 K, 79938 kPa	1570 ± 3.4
298.2 K, 59613 kPa	1558.32 ± 3.1
313.15 K, 101.33 kPa	1503.33 ± 0.68
313.15 K, 10156 kPa	1510.84 ± 2.5
313.15 K, 29996 kPa	1525.09 ± 2.7
313.15 K, 39897 kPa	1531.84 ± 2.8
313.15 K, 49994 kPa	1538.48 ± 2.9
313.15 K, 60124 kPa	1544.89 ± 3.1
313.15 K, 69993 kPa	1550.88 ± 3.2
313.16 K, 1963 kPa	1504.67 ± 2.5
313.16 K, 19902 kPa	1517.96 ± 2.6
313.16 K, 80342 kPa	1556.93 ± 3.4
313.16 K, 89994 kPa	1562.32 ± 3.5
313.17 K, 5147 kPa	1507.08 ± 2.5
313.17 K, 100087 kPa	1567.72 ± 3.7
333.13 K, 80064 kPa	1539.77 ± 3.3
333.13 K, 89994 kPa	1545.53 ± 3.4
333.14 K, 69997 kPa	1533.66 ± 3.1
333.14 K, 99911 kPa	1551 ± 3.6
333.15 K, 101.33 kPa	1483.53 ± 0.66
333.15 K, 60111 kPa	1527.39 ± 3
333.16 K, 49997 kPa	1520.69 ± 2.9
333.17 K, 2359 kPa	1485.34 ± 2.5
333.17 K, 5331 kPa	1487.73 ± 2.5
333.17 K, 40159 kPa	1513.9 ± 2.8
333.18 K, 30001 kPa	1506.61 ± 2.7
333.19 K, 9791 kPa	1491.26 ± 2.5
333.19 K, 18829 kPa	1498.27 ± 2.6
353.15 K, 101.33 kPa	1463.97 ± 0.64
353.18 K, 2168 kPa	1465.71 ± 2.4
353.18 K, 5223 kPa	1468.32 ± 2.4
353.18 K, 69993 kPa	1516.73 ± 3.1
353.18 K, 80056 kPa	1523.09 ± 3.2
353.18 K, 90001 kPa	1529.06 ± 3.4
353.19 K, 9673 kPa	1472.06 ± 2.5
353.19 K, 20093 kPa	1480.58 ± 2.5
353.19 K, 29997 kPa	1488.37 ± 2.6
353.19 K, 39951 kPa	1495.89 ± 2.7
353.19 K, 49979 kPa	1503.15 ± 2.8
353.19 K, 60184 kPa	1510.23 ± 3
353.19 K, 99944 kPa	1534.73 ± 3.5
363.15 K, 101.33 kPa	1454.28 ± 0.63
373.12 K, 724 kPa	1445.01 ± 2.4
373.14 K, 4935 kPa	1448.84 ± 2.4
373.14 K, 60448 kPa	1493.21 ± 2.9
373.14 K, 69979 kPa	1499.69 ± 3
373.14 K, 79868 kPa	1506.16 ± 3.2
373.14 K, 89963 kPa	1512.49 ± 3.3
373.14 K, 99920 kPa	1518.52 ± 3.5
373.16 K, 30001 kPa	1470.33 ± 2.6
373.16 K, 39858 kPa	1478.08 ± 2.7
373.16 K, 49997 kPa	1485.67 ± 2.8
373.17 K, 10147 kPa	1453.42 ± 2.4
373.18 K, 19879 kPa	1461.85 ± 2.5
